Measured values published in the NIST ThermoML archive (doi:10.1021/je100967k).
± gives the expanded uncertainty stated by the source.

Legend:
[1] = xn = mol fraction of the nth substance listed; conditions: 101 kPa, Liquid; for speed of sound: Pulse-echo method
[2] = refractive index (Na D-line) (dimensionless); xn = mol fraction of the nth substance listed; conditions: 101 kPa, Liquid, Standard Abbe refractometry

NCCO [2-aminoethan-1-ol] + CN1CCCC1=O
Conditions | mass density, [1] [kg/m3] | refractive index, [2] | speed of sound, [1] [m/s] | viscosity, [1] [mPa·s]
293.15 K, x2 = 0 | 1016.65 ± 0.52 | 1.4525 ± 0.0005 | 1735.9 ± 1.4 | 24.61 ± 0.35
293.15 K, x2 = 0.1 | 1017.8 ± 0.52 | 1.4546 ± 0.0005 | 1701.7 ± 1.4 | 17.43 ± 0.27
293.15 K, x2 = 0.209 | 1019.27 ± 0.53 | 1.4567 ± 0.0006 | 1673.2 ± 1.4 | 11.99 ± 0.18
293.15 K, x2 = 0.3 | 1020.59 ± 0.53 | 1.4587 ± 0.0005 | 1649.8 ± 1.4 | 8.496 ± 0.13
293.15 K, x2 = 0.4 | 1022.06 ± 0.53 | 1.4604 ± 0.0006 | 1630.1 ± 1.4 | 6.211 ± 0.099
293.15 K, x2 = 0.5 | 1023.46 ± 0.53 | 1.462 ± 0.0006 | 1613.2 ± 1.4 | 4.761 ± 0.075
293.15 K, x2 = 0.596 | 1024.91 ± 0.54 | 1.4634 ± 0.0006 | 1599.1 ± 1.4 | 3.622 ± 0.059
293.15 K, x2 = 0.7 | 1026.57 ± 0.54 | 1.4648 ± 0.0006 | 1587.7 ± 1.4 | 2.883 ± 0.046
293.15 K, x2 = 0.8 | 1028.4 ± 0.54 | 1.4663 ± 0.0006 | 1578.6 ± 1.4 | 2.401 ± 0.039
293.15 K, x2 = 0.907 | 1030.5 ± 0.55 | 1.4677 ± 0.0006 | 1571.4 ± 1.4 | 2.089 ± 0.034
303.15 K, x2 = 0 | 1008.74 ± 0.51 | 1.4488 ± 0.0005 | 1703.7 ± 1.4 | 14.96 ± 0.24
303.15 K, x2 = 0.1 | 1009.8 ± 0.51 | 1.4507 ± 0.0005 | 1668.1 ± 1.4 | 10.93 ± 0.18
303.15 K, x2 = 0.209 | 1011 ± 0.51 | 1.4527 ± 0.0006 | 1638.4 ± 1.4 | 7.985 ± 0.13
303.15 K, x2 = 0.3 | 1012.1 ± 0.51 | 1.4546 ± 0.0006 | 1613.8 ± 1.4 | 5.834 ± 0.095
303.15 K, x2 = 0.4 | 1013.5 ± 0.51 | 1.4563 ± 0.0006 | 1593.6 ± 1.4 | 4.433 ± 0.073
303.15 K, x2 = 0.5 | 1014.9 ± 0.52 | 1.4578 ± 0.0006 | 1576 ± 1.4 | 3.752 ± 0.061
303.15 K, x2 = 0.596 | 1016.3 ± 0.52 | 1.4592 ± 0.0006 | 1561.2 ± 1.4 | 2.822 ± 0.046
303.15 K, x2 = 0.7 | 1018 ± 0.52 | 1.4605 ± 0.0006 | 1549.8 ± 1.4 | 2.296 ± 0.037
303.15 K, x2 = 0.8 | 1019.7 ± 0.53 | 1.4619 ± 0.0006 | 1540.5 ± 1.3 | 1.95 ± 0.032
303.15 K, x2 = 0.907 | 1021.72 ± 0.53 | 1.4632 ± 0.0006 | 1532.7 ± 1.3 | 1.725 ± 0.028
313.15 K, x2 = 0 | 1000.77 ± 0.49 | 1.4449 ± 0.0005 | 1671.2 ± 1.4 | 9.839 ± 0.15
313.15 K, x2 = 0.1 | 1001.6 ± 0.49 | 1.4467 ± 0.0005 | 1634.1 ± 1.4 | 7.429 ± 0.12
313.15 K, x2 = 0.209 | 1002.38 ± 0.49 | 1.4486 ± 0.0005 | 1603.1 ± 1.4 | 5.559 ± 0.091
313.15 K, x2 = 0.3 | 1003.2 ± 0.5 | 1.4505 ± 0.0005 | 1578.6 ± 1.4 | 4.278 ± 0.07
313.15 K, x2 = 0.4 | 1004.2 ± 0.5 | 1.452 ± 0.0006 | 1557.3 ± 1.4 | 3.358 ± 0.055
313.15 K, x2 = 0.5 | 1005.5 ± 0.5 | 1.4534 ± 0.0006 | 1538.9 ± 1.4 | 2.697 ± 0.045
313.15 K, x2 = 0.596 | 1006.9 ± 0.5 | 1.4548 ± 0.0006 | 1523.9 ± 1.3 | 2.245 ± 0.036
313.15 K, x2 = 0.7 | 1008.69 ± 0.51 | 1.4561 ± 0.0006 | 1512.1 ± 1.3 | 1.866 ± 0.03
313.15 K, x2 = 0.8 | 1010.68 ± 0.51 | 1.4575 ± 0.0006 | 1502.6 ± 1.3 | 1.62 ± 0.027
313.15 K, x2 = 0.907 | 1012.79 ± 0.51 | 1.4588 ± 0.0006 | 1494.4 ± 1.3 | 1.462 ± 0.024
323.15 K, x2 = 0 | 992.75 ± 0.5 | 1.4417 ± 0.0005 | 1638.8 ± 1.3 | 6.902 ± 0.11
323.15 K, x2 = 0.1 | 993.31 ± 0.5 | 1.4434 ± 0.0005 | 1600.2 ± 1.4 | 5.386 ± 0.088
323.15 K, x2 = 0.209 | 994 ± 0.5 | 1.4451 ± 0.0005 | 1568.9 ± 1.4 | 4.159 ± 0.069
323.15 K, x2 = 0.3 | 994.64 ± 0.5 | 1.4466 ± 0.0005 | 1544.4 ± 1.4 | 3.289 ± 0.054
323.15 K, x2 = 0.4 | 995.6 ± 0.5 | 1.4479 ± 0.0006 | 1521.5 ± 1.4 | 2.625 ± 0.043
323.15 K, x2 = 0.5 | 996.7 ± 0.49 | 1.4493 ± 0.0006 | 1502 ± 1.3 | 2.173 ± 0.035
323.15 K, x2 = 0.596 | 998.14 ± 0.49 | 1.4506 ± 0.0006 | 1486.7 ± 1.3 | 1.883 ± 0.031
323.15 K, x2 = 0.7 | 999.74 ± 0.49 | 1.4519 ± 0.0006 | 1474.5 ± 1.3 | 1.574 ± 0.026
323.15 K, x2 = 0.8 | 1001.73 ± 0.49 | 1.4533 ± 0.0006 | 1464.8 ± 1.3 | 1.356 ± 0.022
323.15 K, x2 = 0.907 | 1003.86 ± 0.5 | 1.4545 ± 0.0006 | 1456.8 ± 1.3 | 1.24 ± 0.021
